ChEMBL document CHEMBL2073946, “Role of organic anion transporter OATP1B1 (OATP-C) in hepatic uptake of irinotecan and its active metabolite, 7-ethyl-10-hydroxycamptothecin: in vitro evidence and effect of single nucleotide polymorphisms” (Drug Metab Dispos, 2005)

How the values were obtained:
Assay type in all cases: functional, cell-based
[1] = molecular target: T1, Solute carrier organic anion transporter family member 1B1 (Homo sapiens, UniProt Q9Y6L6); assay: TP_TRANSPORTER: uptake in OATP1B1-expressing HEK293 cell
T1 sequence (Q9Y6L6 whole entry): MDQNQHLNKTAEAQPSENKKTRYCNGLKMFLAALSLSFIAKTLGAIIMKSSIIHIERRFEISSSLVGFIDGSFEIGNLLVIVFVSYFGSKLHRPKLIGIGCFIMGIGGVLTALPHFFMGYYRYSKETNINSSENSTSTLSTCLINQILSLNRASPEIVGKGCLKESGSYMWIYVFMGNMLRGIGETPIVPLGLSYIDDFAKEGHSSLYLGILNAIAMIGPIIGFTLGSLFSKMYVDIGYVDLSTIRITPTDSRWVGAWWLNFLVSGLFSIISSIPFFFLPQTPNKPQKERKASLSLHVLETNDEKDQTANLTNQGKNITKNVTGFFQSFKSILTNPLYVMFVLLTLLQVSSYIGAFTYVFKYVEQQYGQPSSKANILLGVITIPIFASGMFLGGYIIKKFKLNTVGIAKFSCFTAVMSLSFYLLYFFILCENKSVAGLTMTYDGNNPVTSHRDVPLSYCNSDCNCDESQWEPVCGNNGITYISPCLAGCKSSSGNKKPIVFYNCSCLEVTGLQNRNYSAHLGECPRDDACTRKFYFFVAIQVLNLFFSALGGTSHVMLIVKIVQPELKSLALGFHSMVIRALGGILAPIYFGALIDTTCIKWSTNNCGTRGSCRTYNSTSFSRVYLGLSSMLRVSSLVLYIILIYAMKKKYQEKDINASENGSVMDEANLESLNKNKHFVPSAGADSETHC

[2] = molecular target: T1, Solute carrier organic anion transporter family member 1B1; assay: TP_TRANSPORTER: inhibition of E1S uptake (SN38 G 10 u M) in OATP1B1-expressing HEK293 cells; details: hek293, 10 µM
[3] = molecular target: T2, Solute carrier organic anion transporter family member 1B3 (Homo sapiens, UniProt Q9NPD5); assay: TP_TRANSPORTER: uptake of SN-38 at a concentration of 0.09uL/oocyte in Xenopus laevis oocytes
T2 sequence (Q9NPD5 whole entry): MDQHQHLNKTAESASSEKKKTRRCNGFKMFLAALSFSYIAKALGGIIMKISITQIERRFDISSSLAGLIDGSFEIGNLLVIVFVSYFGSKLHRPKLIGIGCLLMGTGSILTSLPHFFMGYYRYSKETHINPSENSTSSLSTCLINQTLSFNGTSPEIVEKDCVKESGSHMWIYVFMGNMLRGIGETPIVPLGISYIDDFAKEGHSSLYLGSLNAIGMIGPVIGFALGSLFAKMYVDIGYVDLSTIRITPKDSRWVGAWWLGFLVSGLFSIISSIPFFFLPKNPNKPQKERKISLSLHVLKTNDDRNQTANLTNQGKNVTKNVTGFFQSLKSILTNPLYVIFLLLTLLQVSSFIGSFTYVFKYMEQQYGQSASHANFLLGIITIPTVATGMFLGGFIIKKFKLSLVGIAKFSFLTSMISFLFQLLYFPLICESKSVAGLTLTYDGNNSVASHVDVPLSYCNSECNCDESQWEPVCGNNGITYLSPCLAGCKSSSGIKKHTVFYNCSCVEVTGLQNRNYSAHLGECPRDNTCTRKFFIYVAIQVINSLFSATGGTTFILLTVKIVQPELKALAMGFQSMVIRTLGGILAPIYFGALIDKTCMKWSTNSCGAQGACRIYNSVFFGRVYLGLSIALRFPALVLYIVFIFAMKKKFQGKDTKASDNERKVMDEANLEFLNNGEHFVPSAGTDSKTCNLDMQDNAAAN

[4] = molecular target: T1, Solute carrier organic anion transporter family member 1B1; assay: TP_TRANSPORTER: uptake of SN-38 at a concentration of 0.16uL/oocyte in Xenopus laevis oocytes
[5] = molecular target: T1, Solute carrier organic anion transporter family member 1B1; assay: TP_TRANSPORTER: uptake in OATP1B1-expressing HEK293 cells
[6] = molecular target: T3, Solute carrier organic anion transporter family member 2B1 (Homo sapiens, UniProt O94956); assay: TP_TRANSPORTER: uptake of SN-38 at a concentration of 0.10uL/oocyte in Xenopus laevis oocytes
T3 sequence (O94956 whole entry): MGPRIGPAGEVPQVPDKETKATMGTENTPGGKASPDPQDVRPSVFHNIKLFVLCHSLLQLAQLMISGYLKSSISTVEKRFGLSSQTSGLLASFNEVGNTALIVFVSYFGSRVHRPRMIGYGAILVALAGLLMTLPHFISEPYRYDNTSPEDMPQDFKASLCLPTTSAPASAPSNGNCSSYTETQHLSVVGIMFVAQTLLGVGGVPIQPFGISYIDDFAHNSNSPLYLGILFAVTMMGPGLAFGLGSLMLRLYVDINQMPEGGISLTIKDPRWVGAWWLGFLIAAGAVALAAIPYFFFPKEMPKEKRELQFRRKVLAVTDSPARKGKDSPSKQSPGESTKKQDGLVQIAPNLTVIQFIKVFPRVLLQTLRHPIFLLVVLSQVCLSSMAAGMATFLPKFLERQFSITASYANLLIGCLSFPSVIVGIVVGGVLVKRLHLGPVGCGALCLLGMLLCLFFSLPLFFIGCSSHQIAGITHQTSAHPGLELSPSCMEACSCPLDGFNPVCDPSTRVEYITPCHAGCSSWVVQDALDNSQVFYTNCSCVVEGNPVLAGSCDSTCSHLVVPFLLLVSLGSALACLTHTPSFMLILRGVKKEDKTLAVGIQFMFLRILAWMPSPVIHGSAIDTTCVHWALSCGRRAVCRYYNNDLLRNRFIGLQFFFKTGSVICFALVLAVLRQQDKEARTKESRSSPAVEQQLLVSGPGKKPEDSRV

[7] = molecular target: T1, Solute carrier organic anion transporter family member 1B1; assay: TP_TRANSPORTER: inhibition of E1S uptake (SN38 10 u M) in OATP1B1-expressing HEK293 cells; design: scale not given: the % may be the effect or the level left; details: hek293, 10 µM

## CCc1c2c(nc3ccc(OC[C@@H]4O[C@H](C(=O)O)[C@@H](O)[C@H](O)[C@H]4O)cc13)-c1cc3c(c(=O)n1C2)COC(=O)[C@]3(O)CC
[1]
  Activity: is not a substrate [-]
[2]
  Activity: is not an inhibitor [-]

## CCc1c2c(nc3ccc(O)cc13)-c1cc3c(c(=O)n1C2)COC(=O)[C@]3(O)CC [7-ETHYL-10-HYDROXYCAMPTOTHECIN]
[3]
  Activity: is not a substrate [-]
[1]
  Activity: substrate [+]
[4]
  Activity: substrate [+]
[5]
  Activity: substrate []
[6]
  Activity: is not a substrate [-]
[7]
  Activity: 50%

## CCc1c2c(nc3ccc(OC(=O)N4CCC(N5CCCCC5)CC4)cc13)-c1cc3c(c(=O)n1C2)COC(=O)[C@]3(O)CC [IRINOTECAN]
[1]
  Activity: is not a substrate [-]
